Experimental data reported in PubChem BioAssay (NCI).
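Interpolation was linear, between the two tested concentrations surrounding the appropriate level; five concentrations were tested over 48 hours in 96-well plates. TGI is the concentration that stops growth completely.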

system: RXF 393 renal; test: NCI tumour cell line growth inhibition, 48 h

| Structure (SMILES) | TGI [µM] |
| --- | --- |
| S=C(c1c[nH]c2ccccc12)N1CCOCC1 | > 100 |
| CNc1ccc(OC)cc1S(=O)(=O)c1ccccc1[N+](=O)[O-] | > 100 |
| CC1(CCCO)CCCCCC(C)(CCCO)C1=O (centres undefined) | > 100 |
| COC(C)(C)C1=CCC(C)CC1 (centres undefined) | > 100 |
| C=C1CC(c2ccc(OCCCN3C(=O)c4ccccc4C3=O)c(OC)c2)OC1=O (centres undefined) | 7 |

system: SF-539 CNS; test: NCI tumour cell line growth inhibition, 48 h

| Structure (SMILES) | TGI [µM] |
| --- | --- |
| O=C(O)c1n[nH]nc1Cl | > 100 |
| CN(c1ccc(Cl)cc1)S(=O)(=O)c1cccc([N+](=O)[O-])c1 | > 100 |
| CCC(=O)NC(Nc1cccc(F)c1C)(C(F)(F)F)C(F)(F)F | > 100 |
| Cc1cc2nc3c(C#N)c(-c4ccccc4)cc(Nc4ccc(Cl)cc4)n3c2cc1C | > 100 |
| CN(c1ccc(Cl)cc1)S(=O)(=O)c1ccc([N+](=O)[O-])cc1 | > 100 |
| O=S1(=O)OCCOS(=O)(=O)C1F | > 100 |
| CC(C)(C)C(=O)OCC1CCC[N+]2(C)CCCCC12 (centres undefined) | > 100 |
| COCCOCc1nc(C#N)c(N)o1 | > 100 |
| CN(C)Cc1cc(C(=O)/C=C/c2ccc(Cl)cc2)cc(CN(C)C)c1O | 38.7 |
| CC(=O)c1c2c(cc3c1CC1(Cc4ccccc4C1=O)C3)CCC2 (centres undefined) | > 100 |
| Cc1cccc(-c2nc3ccc([N+](=O)[O-])cc3c(=O)o2)c1 | > 100 |
| NC(N)=NCCN=C(N)N | > 100 |
| NC(=O)C(N)Cc1ccc(O)cn1 (centres undefined) | > 100 |
| COC(=O)C(C)(NC(=O)C(CC(=O)OC(C)(C)C)NC(=O)OC(C)(C)C)c1ccccc1 (centres undefined) | > 100 |
| COc1ccc(N=C2SC(=N/N=c3\sc4ccccc4n3C)SC2=Nc2ccc(OC)cc2)cc1 | > 100 |
| CCOC(=O)C1=CC(C)(C(=O)OCC)Nc2c(nc(OC)n(C)c2=O)N1 (centres undefined) | > 10 |
| S=C(c1c[nH]c2ccccc12)N1CCOCC1 | > 100 |
| CNc1ccc(OC)cc1S(=O)(=O)c1ccccc1[N+](=O)[O-] | > 100 |
| COC(C)(C)C1=CCC(C)CC1 (centres undefined) | > 100 |
| C=C1CC(c2ccc(OCCCN3C(=O)c4ccccc4C3=O)c(OC)c2)OC1=O (centres undefined) | 1.69 |

system: SK-MEL-28 melanoma; test: NCI tumour cell line growth inhibition, 48 h

| Structure (SMILES) | TGI [µM] |
| --- | --- |
| CC1CC(N)=Nc2ccccc2N1 (centres undefined) | > 100 |
| O=C(O)c1n[nH]nc1Cl | > 100 |
| CN(c1ccc(Cl)cc1)S(=O)(=O)c1cccc([N+](=O)[O-])c1 | > 100 |
| CCC(=O)NC(Nc1cccc(F)c1C)(C(F)(F)F)C(F)(F)F | > 100 |
| Cc1cc2nc3c(C#N)c(-c4ccccc4)cc(Nc4ccc(Cl)cc4)n3c2cc1C | > 100 |
| CN(c1ccc(Cl)cc1)S(=O)(=O)c1ccc([N+](=O)[O-])cc1 | > 100 |
| O=S1(=O)OCCOS(=O)(=O)C1F | > 100 |
| O=c1[nH]c(-c2ccc3ccccc3c2)nc2ccccc12 | > 100 |
| CC(C)(C)C(=O)OCC1CCC[N+]2(C)CCCCC12 (centres undefined) | > 100 |
| COCCOCc1nc(C#N)c(N)o1 | > 100 |
| CN1C(=O)N/C(=C\c2ccc(S(=O)(=O)NN)cc2)C1=O | > 100 |
| CN(C)Cc1cc(C(=O)/C=C/c2ccc(Cl)cc2)cc(CN(C)C)c1O | 26.4 |
| O=S(=O)(c1ccccc1)n1c2cc3cccnc3nc2c2cccnc21 | > 100 |
| Cc1cc(N(CCC#N)CCC#N)ccc1/C(N=Nc1ccc([N+](=O)[O-])cc1)=N\NC(=O)c1cc(Cl)ccc1C(=O)c1ccccc1 | > 100 |
| CC(=O)c1c2c(cc3c1CC1(Cc4ccccc4C1=O)C3)CCC2 (centres undefined) | 68.4 |
| Cc1cccc(-c2nc3ccc([N+](=O)[O-])cc3c(=O)o2)c1 | > 100 |
| O=C1N=c2ccccc2=C1c1c(O)[nH]c2ccccc12 | > 100 |
| NC(N)=NCCN=C(N)N | > 100 |
| NC(=O)C(N)Cc1ccc(O)cn1 (centres undefined) | > 100 |
| COC(=O)C(C)(NC(=O)C(CC(=O)OC(C)(C)C)NC(=O)OC(C)(C)C)c1ccccc1 (centres undefined) | > 100 |
| COc1ccc(N=C2SC(=N/N=c3\sc4ccccc4n3C)SC2=Nc2ccc(OC)cc2)cc1 | > 100 |
| CCOC(=O)C1=CC(C)(C(=O)OCC)Nc2c(nc(OC)n(C)c2=O)N1 (centres undefined) | > 10 |
| S=C(c1c[nH]c2ccccc12)N1CCOCC1 | > 100 |
| CNc1ccc(OC)cc1S(=O)(=O)c1ccccc1[N+](=O)[O-] | > 100 |
| CC1(CCCO)CCCCCC(C)(CCCO)C1=O (centres undefined) | > 100 |
| COC(C)(C)C1=CCC(C)CC1 (centres undefined) | > 100 |
| C=C1CC(c2ccc(OCCCN3C(=O)c4ccccc4C3=O)c(OC)c2)OC1=O (centres undefined) | 9.34 |

system: SN12C renal; test: NCI tumour cell line growth inhibition, 48 h

| Structure (SMILES) | TGI [µM] |
| --- | --- |
| CC1CC(N)=Nc2ccccc2N1 (centres undefined) | > 100 |
| O=C(O)c1n[nH]nc1Cl | > 100 |
| CN(c1ccc(Cl)cc1)S(=O)(=O)c1cccc([N+](=O)[O-])c1 | > 100 |
| Cc1cc2nc3c(C#N)c(-c4ccccc4)cc(Nc4ccc(Cl)cc4)n3c2cc1C | > 100 |
| CN(c1ccc(Cl)cc1)S(=O)(=O)c1ccc([N+](=O)[O-])cc1 | > 100 |
| O=S1(=O)OCCOS(=O)(=O)C1F | > 100 |
| O=c1[nH]c(-c2ccc3ccccc3c2)nc2ccccc12 | > 100 |
